Laboratory results taken from patent US20260216197A1, “WRN HELICASE INHIBITOR” (SUZHOU PUHE BIOPHARMA CO., LTD., priority 2022, published 2026).
Where two headings read alike, the source gives them in different places.

Tests used:
[1] = Caco-2 membrane permeability assay; format: in vitro ADME; conditions: human; Caco-2, apical pH 6.5, basolateral pH 7.4
Experimental: The membrane permeability of the molecule of the present disclosure was evaluated. Samples were analyzed by LC-MS to estimate the apparent permeability coefficient (Papp) of the compounds across Caco-2 cell monolayers, with the apical chamber at pH 6.5 and the basolateral chamber at pH 7.4. Active efflux transport of compounds can be blocked using inhibitors of P-gp efflux transporter, BCRP, and MRP2 (50 μM quinidine, 30 μM benzbromarone, and 20 μM sulfasalazine). The data were used to determine apparent permeability (Papp).
[formula] • where VA is the volume of the receptor pore (in mL), Area is the surface area of the membrane (0.143 cm^2 for Transwell-96 well permeable scaffolds), and time is the total transport time (in seconds).

[2] = tested on: MSS colorectal cancer HT-29 cell line; assay: 2D anti-proliferative activity, MSS HT-29 cells (CTG, 5 days); format: cell-based; conditions: Homo sapiens, 120 h
Method in brief: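 HT-29 cells in McCoy's 5A with 10% FBS exposed to compound for 5 days at 37° C, 5% CO2 in 384-well format. Viable cells read as ATP luminescence (CellTiter-Glo) after 30 min.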

[3] = tested on: MSI-H colorectal cancer SW48 cell line; assay: 2D anti-proliferative activity, MSI-H SW48 cells (CTG, 5 days); format: cell-based; conditions: for inhibition at 38.15 pM: 0.038146973 nM; for inhibition at 0.000152588 µM: 0.152587891 nM; for inhibition at 0.000610352 µM: 0.610351563 nM; for inhibition at 0.00244141 µM: 2.44140625 nM; for inhibition at 0.00976562 µM: 9.765625 nM; for inhibition at 0.0390625 µM: 39.0625 nM; for inhibition at 0.15625 µM: 156.25 nM; for inhibition at 0.625 µM: 625 nM; for inhibition at […]: 2500 nM; for inhibition at 10 µM: 10000 nM
Method in brief: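 SW48 cells in RPMI 1640/10% FBS were exposed to serially varied compound concentrations for 5 days at 37 °C, 5% CO2. Viability was read as ATP-dependent CellTiter-Glo luminescence after 30 min.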

[4] = tested on: SW 48 (MSI-H) colorectal cancer cells; assay: In vivo pharmacodynamic assay, SW48 xenograft in nude mice; design: species or system BALB/c nude mice; conditions: 50 mg/kg, QD, oral
Experimental: In vivo pharmacodynamic assay in BALB/c nude mice. Details are as follows:
SW 48 (MSI-H) colorectal cancer cells were cultured (L15 medium with 10% fetal bovine serum), and then inoculated into 6-8-week old female BALB/c nude mice (weighing about 20 g), wherein all mice were inoculated subcutaneously. The mice were cultured in an SPF-grade experimental environment, and all mice had free access to commercially certified standard diets. When the average tumor volume of the mice grew to about 150 mm^3, the test compound was orally administered daily. The dosage was as follows: blank group vehicle (10% HP-β-CD aqueous solution, pH-7). The dosage of the administration group was 120 mg/kg, 50 mg/kg, or 20 mg/kg, once a day. The tumor volume was measured with a two-dimensional caliper three times a week, and the animals were weighed every day. […] The tumor volume was calculated using the formula: V=½a*b^2, where a represents the long diameter of the tumor, and b represents the short diameter of the tumor.

[5] = Liver microsome stability test; format: in vitro ADME; conditions: human liver microsomes 0.5 mg/mL, compound 1 μM, NADPH 1 mM, 60 minutes
[6] = Homo sapiens, read-out: Average value/ Inhibition rate
[7] = Homo sapiens, read-out: Test 1/ Inhibition rate
[8] = Homo sapiens, read-out: Test 2/ Inhibition rate

Which Papp A→B [1] does the source give for `CCc1c(N2CCN(C(=O)c3ncnc(C)c3O)CC2)c(=O)n2nc(C3=CCOCC3)nc2n1CC(=O)Nc1ccc(C(F)(F)F)c2ccoc12` [Compound H22] here?
The Papp A→B was 3.2 ×10⁻⁶ cm/s.

And the Papp B→A [1]?
Its Papp B→A is 21 ×10⁻⁶ cm/s.

What about the IC50 [2] of the same compound?
The IC50 was > 10000 nM.

And the “inhibitory activity on SW48 cells” value ([3]; 39 nM)?
Its value is “high inhibitory activity”.

What about the inhibition at 38.15 pM [3, 6] of the same compound?
Its inhibition at 38.15 pM is -4.19%.

And the inhibition at 38.15 pM [3, 7]?
Its inhibition at 38.15 pM is -1.57%.

What about the inhibition at 38.15 pM [3, 8] of the same compound?
Its inhibition at 38.15 pM is -6.81%.

And the inhibition at 0.000152588 µM [3, 6]?
The inhibition at 0.000152588 µM was 0.206%.

What about the inhibition at 0.000152588 µM [3, 7] of the same compound?
The inhibition at 0.000152588 µM was -0.184%.

And the inhibition at 0.000152588 µM [3, 8]?
The inhibition at 0.000152588 µM was 0.596%.

What about the inhibition at 0.000610352 µM [3, 6] of the same compound?
Its inhibition at 0.000610352 µM is -2.48%.

And the inhibition at 0.000610352 µM [3, 7]?
The inhibition at 0.000610352 µM was -1.27%.

What about the inhibition at 0.000610352 µM [3, 8] of the same compound?
The inhibition at 0.000610352 µM was -3.7%.

And the inhibition at 0.00244141 µM [3, 6]?
Its inhibition at 0.00244141 µM is -0.303%.

What about the inhibition at 0.00244141 µM [3, 7] of the same compound?
The inhibition at 0.00244141 µM was 2.69%.

What about the inhibition at 0.00244141 µM [3, 8] of the same compound?
The inhibition at 0.00244141 µM was -3.3%.

And the inhibition at 0.00976562 µM [3, 6]?
Its inhibition at 0.00976562 µM is -6.3%.

What about the inhibition at 0.00976562 µM [3, 7] of the same compound?
The inhibition at 0.00976562 µM was -5.49%.

And the inhibition at 0.00976562 µM [3, 8]?
The inhibition at 0.00976562 µM was -7.12%.

And the inhibition at 0.0390625 µM [3, 6]?
The inhibition at 0.0390625 µM was 29.2%.

And the inhibition at 0.0390625 µM [3, 7]?
The inhibition at 0.0390625 µM was 28.4%.

What about the inhibition at 0.0390625 µM [3, 8] of the same compound?
Its inhibition at 0.0390625 µM is 30%.

And the inhibition at 0.15625 µM [3, 6]?
The inhibition at 0.15625 µM was 98%.

And the inhibition at 0.15625 µM [3, 7]?
The inhibition at 0.15625 µM was 98.4%.

And the inhibition at 0.15625 µM [3, 8]?
Its inhibition at 0.15625 µM is 97.6%.

And the inhibition at 0.625 µM [3, 6]?
The inhibition at 0.625 µM was 98.1%.

What about the inhibition at 0.625 µM [3, 7] of the same compound?
The inhibition at 0.625 µM was 98.3%.

What about the inhibition at 0.625 µM [3, 8] of the same compound?
Its inhibition at 0.625 µM is 97.9%.

And the inhibition at […] [3, 6]?
The inhibition at […] was 99.6%.

And the inhibition at […] [3, 7]?
The inhibition at […] was 99.9%.

And the inhibition at […] [3, 8]?
Its inhibition at […] is 99.2%.

What about the inhibition at 10 µM [3, 6] of the same compound?
Its inhibition at 10 µM is 101%.

And the inhibition at 10 µM [3, 7]?
Its inhibition at 10 µM is 102%.

What about the inhibition at 10 µM [3, 8] of the same compound?
Its inhibition at 10 µM is 101%.

What about the IC50 ([3]; Homo sapiens, 120 h, 5 days) of the same compound?
Its IC50 is 47 nM.

What about the TGI [4] of the same compound?
The TGI was 104%.

And the “Tumor volume (mm^3)-D 1” value ([4]; day 1)?
Its value is 162 mm^3.

What about the “Tumor volume (mm^3)-D 21” value ([4]; day 21) of the same compound?
The value was 89 mm^3.

And the CLint scaled at 1 μM [5]?
The CLint scaled at 1 μM was < 6.8 mL/min/kg.

What about the microsomal CLint at 1 μM ([5]; read-out: Human Clint μL/min/mg Protein) of the same compound?
Its microsomal CLint at 1 μM is < 5.4 µL/min/mg.
